Calls of active or inactive are those of the source.
Columns and labels:
[1] = nonselective inhibitors of cellular cAMP signaling, dose response, counter-screen for MC4R biased antagonist project, cell-based, TR-FRET cAMP detection (AID 602305); format: functional;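 also: U2OS cells stimulated with forskolin near its EC80 as the cAMP inducer; potency is for inhibition of forskolin-stimulated cAMP signaling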
Melanocortin receptor 4 = Melanocortin receptor 4 (Homo sapiens, UniProt P32245); assay: MC4R antagonist potency on cAMP, dose response, cell-based, TR-FRET, biased antagonists (AID 602298); format: functional;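 also: antagonist potency against agonist-stimulated cAMP production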
[2] = off-target signal loss in HeLa-CEM21 co-culture – HeLa F-luc CTL cells, cherry-picked, counter-screen for HIV-1 Env fusion inhibitor project, dose response (AID 652040); format: functional, cell-based;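 also: potency for signal decrease marking cytotoxic or nonspecific inhibition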
[3] = inhibitors of clade B AD8 Env fusion, dose response, cell-based, cherry-pick (AID 652062); format: functional;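 also: luciferase signal from cell-cell fusion driven by HIV-1 clade B AD8 Env; potency is for inhibitors of fusion seen as a drop in luminescence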
[4] = inhibitors of HIV Env-driven cell fusion, dose response, cherry-pick (AID 652057); format: functional, cell-based
[5] = ZM109 Env clade C HIV-1 fusion inhibitors, dose response, HeLa effector, CEM target cells, luciferase, cherry-pick (AID 652058); format: functional, cell-based
Beta-galactosidase [6] = target: T1, Beta-galactosidase (Escherichia coli, UniProt Q8VNN2); assay: Dose response counterscreen for EBI2 assay utilizing the enzyme, b-galactosidase.; format: functional
Coagulation factor XII = target: T2, Coagulation factor XII (Homo sapiens, UniProt P00748); format: functional;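 also: activated factor XIIa alpha cleaving a fluorogenic AMC peptide substrate; inhibitor potency from loss of enzyme activity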
T2 sequence (P00748 whole entry): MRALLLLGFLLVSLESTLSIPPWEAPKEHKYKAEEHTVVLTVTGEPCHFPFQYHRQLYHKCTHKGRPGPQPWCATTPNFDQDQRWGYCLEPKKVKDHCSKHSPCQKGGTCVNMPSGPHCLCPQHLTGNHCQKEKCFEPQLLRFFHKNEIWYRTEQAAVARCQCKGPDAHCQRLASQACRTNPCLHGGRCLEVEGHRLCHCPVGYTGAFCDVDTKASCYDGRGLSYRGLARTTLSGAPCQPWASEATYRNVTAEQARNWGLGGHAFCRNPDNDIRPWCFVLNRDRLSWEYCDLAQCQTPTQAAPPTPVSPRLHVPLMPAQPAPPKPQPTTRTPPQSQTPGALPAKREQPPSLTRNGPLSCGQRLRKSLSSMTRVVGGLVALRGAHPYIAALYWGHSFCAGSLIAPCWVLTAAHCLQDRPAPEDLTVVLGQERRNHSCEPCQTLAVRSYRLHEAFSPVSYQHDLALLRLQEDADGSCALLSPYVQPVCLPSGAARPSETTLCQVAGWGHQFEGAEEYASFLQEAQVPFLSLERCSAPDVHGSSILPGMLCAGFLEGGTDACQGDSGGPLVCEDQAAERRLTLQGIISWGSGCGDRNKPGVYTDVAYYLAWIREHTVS

Vero [7] = assay: cells; format: functional, cell-based; conditions: Chlorocebus sabaeus
Vero [8] = assay: cells; format: functional; conditions: Chlorocebus sabaeus
[9] = target: T3, Type-1 angiotensin II receptor (Homo sapiens, UniProt P30556); assay: AT1 receptor antagonists, dose response, selectivity assay for APJ receptor antagonist project, cell-based, uHTS hits (AID 463214); format: functional;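 also: antagonist potency against angiotensin II stimulated AT1 response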
T3 sequence (P30556 whole entry): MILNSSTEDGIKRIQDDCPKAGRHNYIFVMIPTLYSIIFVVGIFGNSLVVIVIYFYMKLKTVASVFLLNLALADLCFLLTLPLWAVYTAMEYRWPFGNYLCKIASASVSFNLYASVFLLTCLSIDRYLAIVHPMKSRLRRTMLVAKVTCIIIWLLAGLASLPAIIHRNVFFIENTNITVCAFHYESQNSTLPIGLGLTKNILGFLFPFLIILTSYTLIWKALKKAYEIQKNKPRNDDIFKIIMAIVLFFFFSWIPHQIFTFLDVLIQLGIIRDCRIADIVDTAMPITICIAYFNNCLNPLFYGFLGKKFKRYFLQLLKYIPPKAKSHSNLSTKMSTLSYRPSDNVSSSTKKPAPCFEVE

Beta-galactosidase [10] = target: T1, Beta-galactosidase; assay: PubChem AID 485352; format: functional
Streptococcus = assay: Group A Streptococcus viability loss, dose response, counter-screen for streptokinase expression inhibitor project, luminescence, BacTiterGlo (AID 1915); format: functional, organism-based;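 also: potency for reduction of bacterial viability or growth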
[11] = test system: Streptococcus sp. 'group A'; assay: growth inhibition of control SK(-) GAS strain, dose response, counter-screen for streptokinase expression inhibitor project, luminescence, kanamycin, BacTiterGlo, confirmation (AID 1900); format: functional, organism-based
Streptokinase A = target: T4, Streptokinase A (Streptococcus pyogenes serotype M1, UniProt P10520); assay: S. pyogenes streptokinase expression inhibitors, potency, dose response, plasminogen activation absorbance, OD405 (AID 1914); format: functional, Streptococcus pyogenes M1 GAS;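 also: secreted streptokinase activity via plasminogen activation per viability signal from cell pellet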
T4 sequence (P10520 whole entry): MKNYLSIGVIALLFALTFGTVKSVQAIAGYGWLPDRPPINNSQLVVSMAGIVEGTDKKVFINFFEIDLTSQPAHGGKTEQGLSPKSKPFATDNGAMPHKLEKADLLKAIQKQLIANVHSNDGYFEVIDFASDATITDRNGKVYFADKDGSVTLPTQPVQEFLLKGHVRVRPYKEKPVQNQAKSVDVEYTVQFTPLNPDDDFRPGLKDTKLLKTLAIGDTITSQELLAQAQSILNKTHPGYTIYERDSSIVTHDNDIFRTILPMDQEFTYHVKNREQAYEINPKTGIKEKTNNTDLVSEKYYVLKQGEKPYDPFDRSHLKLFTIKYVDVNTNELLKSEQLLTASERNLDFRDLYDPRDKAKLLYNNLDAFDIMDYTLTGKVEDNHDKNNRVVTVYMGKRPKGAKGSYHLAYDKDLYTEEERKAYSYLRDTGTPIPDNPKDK

[12] = inhibitors of intracellular T. cruzi replication, confirmation, NIH3T3 host cells, beta-gal luminescence (AID 2044); format: functional, cell-based;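 also: intracellular parasites grown in NIH/3T3 mouse fibroblasts as host cells; luminescent beta-galactosidase reporter signal from transgenic T. cruzi replicating inside host cells; inhibitors lower the luminescence signal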
[13] = cytotoxicity in HEK-293T cells, dose response, cytotoxicity control for BCR NF-kB inhibitor project, luminescence, B-cell screen hits (AID 489021); format: functional, cell-based;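 also: HEK-293T cells carrying an NF-kB luciferase reporter; cells exposed to compound for about 14 hours before viability readout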
cells [14] = format: functional, cell-based
cells [15] = format: functional, cell-based; remark: listed apart in the source

T1 sequence (Q8VNN2 whole entry): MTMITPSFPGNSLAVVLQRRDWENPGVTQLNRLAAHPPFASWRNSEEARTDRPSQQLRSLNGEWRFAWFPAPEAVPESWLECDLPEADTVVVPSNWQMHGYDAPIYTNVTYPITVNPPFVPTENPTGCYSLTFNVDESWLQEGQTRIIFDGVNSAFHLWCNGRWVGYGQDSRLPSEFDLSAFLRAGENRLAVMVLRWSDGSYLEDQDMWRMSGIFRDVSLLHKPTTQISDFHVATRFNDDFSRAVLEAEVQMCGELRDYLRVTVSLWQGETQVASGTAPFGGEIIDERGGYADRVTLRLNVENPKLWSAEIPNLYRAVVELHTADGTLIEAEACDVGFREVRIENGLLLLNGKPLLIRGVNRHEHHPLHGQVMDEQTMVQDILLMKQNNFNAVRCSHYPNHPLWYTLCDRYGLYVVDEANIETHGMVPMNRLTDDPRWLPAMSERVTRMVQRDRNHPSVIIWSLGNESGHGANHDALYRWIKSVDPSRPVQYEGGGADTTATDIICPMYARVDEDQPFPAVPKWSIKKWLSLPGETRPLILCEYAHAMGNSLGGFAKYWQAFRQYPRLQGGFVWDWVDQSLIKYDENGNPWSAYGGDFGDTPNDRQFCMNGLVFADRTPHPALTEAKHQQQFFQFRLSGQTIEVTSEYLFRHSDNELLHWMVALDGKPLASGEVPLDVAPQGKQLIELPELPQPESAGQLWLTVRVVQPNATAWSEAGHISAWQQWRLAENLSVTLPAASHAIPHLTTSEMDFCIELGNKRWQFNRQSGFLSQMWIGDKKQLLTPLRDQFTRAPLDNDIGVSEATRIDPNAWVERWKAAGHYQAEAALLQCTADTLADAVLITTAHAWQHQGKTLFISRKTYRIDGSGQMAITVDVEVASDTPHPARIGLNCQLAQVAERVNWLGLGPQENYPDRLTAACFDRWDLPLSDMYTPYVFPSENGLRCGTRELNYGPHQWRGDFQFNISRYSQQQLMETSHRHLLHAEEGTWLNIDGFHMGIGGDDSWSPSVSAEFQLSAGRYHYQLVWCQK
Sequence of Melanocortin receptor 4 (P32245 whole entry, the tested form may be a part): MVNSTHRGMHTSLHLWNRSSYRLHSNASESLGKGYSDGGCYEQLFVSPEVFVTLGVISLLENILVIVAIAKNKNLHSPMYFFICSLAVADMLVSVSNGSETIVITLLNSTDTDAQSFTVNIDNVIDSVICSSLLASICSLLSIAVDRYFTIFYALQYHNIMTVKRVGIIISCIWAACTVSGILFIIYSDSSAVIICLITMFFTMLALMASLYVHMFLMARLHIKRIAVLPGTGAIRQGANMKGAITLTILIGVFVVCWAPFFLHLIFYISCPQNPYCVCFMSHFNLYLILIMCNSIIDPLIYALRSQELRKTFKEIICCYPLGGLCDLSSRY

In the case of `O=S(=O)(c1ccc(F)cc1)N1CCN(c2nc(-c3cccnc3)nc3ccccc23)CC1`, the IC50 [1] is reported as > 64.6 µM (inactive) and the IC50 (Melanocortin receptor 4) is reported as > 64.6 µM (inactive).

For `COc1cc(C(=O)N2CCN(c3ncnc4sc(C)c(C)c34)CC2)cc(OC)c1OC`, the AC50 [2] was 24.4 µM (active), the AC50 [3] was 8.4 µM (active) and the AC50 [4] was 33.7 µM (active). For the same compound, the AC50 [5] was 6.73 µM (active).

For `O=C(/C=C/c1ccc([N+](=O)[O-])cc1)N1CCN(S(=O)(=O)c2ccccc2)CC1`, the IC50 (Beta-galactosidase [6]) was > 80 µM (inactive).

In the case of `COc1ccccc1C1(CCNC(C)c2cccs2)CCOC(C(C)C)C1` (stereo not given), the IC50 [1] is reported as > 64.5 µM (inactive) and the IC50 (Melanocortin receptor 4) is reported as 10.1 µM (inactive).

In the case of `CCOC(=O)C(C(=O)NCc1cccc(OC)c1)c1ncc(C(F)(F)F)cc1Cl` (stereo not given), the IC50 (Coagulation factor XII) is reported as > 50 µM (inactive).

With `CCOC(=O)c1c(SCCN2CCCCC2)n(-c2ccccc2)c(=S)n(-c2ccccc2)c1=O` the IC50 (Vero [7]) was 20.1 µM (active) and the CC50 (Vero [8]) was > 25 µM (active).

With `Cc1ccc(OCC(=O)N2CCN(S(=O)(=O)c3ccc4c(c3)OCCO4)CC2)c(C)c1` the IC50 (Beta-galactosidase [6]) was > 80 µM (inactive).

For `C[C@@H]1CNC(=O)c2c(C(=O)N3CCN(c4ccccc4)CC3)ncn21`, the AC50 [2] was 10.4 µM (active), the AC50 [3] was 19.7 µM (active) and the AC50 [4] was 7.81 µM (active). For the same compound, the AC50 [5] was 14.8 µM (active).

For `O=[N+]([O-])c1cccc(/C=N/NS(=O)(=O)c2ccccc2)c1`, the IC50 [9] was 24.3 µM (not active) and the EC50 (Beta-galactosidase [10]) was > 40 µM (inactive).

With `Cc1ccc(Cn2cc(/C=N/NC(=O)Cc3nnc(NC(=O)c4ccc(C)cc4)s3)c3ccccc32)cc1` the EC50 (Streptococcus) was 36.9 µM (active), the EC50 [11] was 2.5 µM (active) and the IC50 (Coagulation factor XII) was > 50 µM (inactive). The EC50 (Streptokinase A) was > 150 µM (not active).

With `Cc1ccc(Nc2nc(N/N=C\c3ccc4c(c3)OCO4)nc(N3CCOCC3)n2)cc1` the EC50 (Streptococcus) was > 150 µM (not active), the EC50 [12] was 0.393 µM (active) and the EC50 [11] was 21.8 µM (active). For the same compound, the IC50 [13] was 63.2 µM (inactive) and the EC50 (Streptokinase A) was 111 µM (active).

With `COc1cc(/C=N/CC2OCCc3ccccc32)cc(OC)c1` (stereo not given) the IC50 (cells [14]) was > 29.9 µM (inactive) and the EC50 (cells [15]) was > 29.9 µM (inactive).

Reference: ChEMBL document CHEMBL1201862, “PubChem BioAssay data set” (2004)
